Where two headings read alike, the source gives them in different places.
Legend:
influenza A/WSN/33 = test: Antiviral assay in MDCK cells, viral neuraminidase (MUNANA) readout, A/H1N1/WSN; format: cell-based; settings: read-out: A/H1N1/WSN Activity
[1] = tested on: Influenza A/Solomon Islands/3/06; test: Antiviral assay in MDCK cells, viral neuraminidase (MUNANA) readout, A/H1N1/Solomon Islands; format: cell-based; settings: read-out: A/H1N1/Solomon Islands Activity
[2] = tested on: influenza A/Brisbane/10/2007; test: Antiviral assay in MDCK cells, viral neuraminidase (MUNANA) readout, A/H3N2/Brisbane; format: cell-based; settings: read-out: A/H3N2/Brisbane Activity
A/H5N1/Duck_MN = test: microbe, parasite or virus in culture; format: cell-based, influenza A
A/H5N1/Duck_PA = test: microbe, parasite or virus in culture; format: cell-based, influenza A
A/H5N1/Gull_PA = test: microbe, parasite or virus in culture; format: cell-based, influenza A
[3] = MDCK cells, MOI 0.001, 48 hrs post infection, viral NA activity
[4] = Influenza A virus, H1N1, MDCK, 48 h
[5] = Influenza A virus, H3N2, MDCK, 48 h
[6] = Influenza A virus, H5N1, read-out: A/H5N1/Duck_MN
[7] = Influenza A virus, H5N1, read-out: A/H5N1/Duck_PA
[8] = Influenza A virus, H5N1, read-out: A/H5N1/Gull_PA

Row | SMILES | EC50 (influenza A/WSN/33; [3]) [nM] | EC50 [1, 3] [nM] | EC50 [2, 3] [nM] | further results
1 | COc1ccccc1-c1noc(C)c1C(=O)N1CCN(c2cc(NC(=O)c3ccc(C)cc3)c([N+](=O)[O-])cc2Cl)CC1 [Example 24] | < 100 | < 100 | < 10000 | 
2 | COc1ccc(C(=O)Nc2cc(N3CCN(C(=O)c4c(-c5ccccc5OC)ncn4C)CC3)c(Cl)cc2[N+](=O)[O-])cc1 [Example 102] | < 100 | < 1000 | < 10000 | 
3 | COc1ccccc1-c1noc(C)c1C(=O)N1CCN(c2cc(NC(=O)c3ccc(-n4cncn4)cc3)c([N+](=O)[O-])cc2Cl)CC1 [Example 37] | < 100 | < 100 | < 1000 | 
4 | COc1ccccc1-c1noc(CF)c1C(=O)N1CCN(c2cc(NC(=O)c3ccc(N(C)C)cc3)c(Cl)cc2Cl)CC1 [Example 69, N-(2,4-dichloro-5-(4-(5-(fluoromethyl)-3-(2-methoxyphenyl)isoxazole-4-carbonyl)piperazin-1-yl)phenyl)-4-(dimethylamino)benzamide] |  |  |  | EC50 (influenza A/WSN/33; Influenza A virus, MDCK, 48 h): < 1000 nM; EC50 [1, 4]: < 1000 nM; EC50 [2, 5]: < 10000 nM
5 | COc1ccccc1-c1nnn(C)c1C(=O)N1CCN(c2cc(NC(=O)c3ccc(N4CCCS4(=O)=O)cc3)c(Br)cc2Cl)CC1 [Example 120, N-(4-chloro-5-(4-(4-(2-methoxyphenyl)-1-methyl-1H-1,2,3-triazole-5-carbonyl)piperazin-1-yl)-2-bromophenyl)-4-(1,1-dioxidoisothiazolidin-2-yl)benzamide] |  |  |  | EC50 (influenza A/WSN/33; Influenza A virus, MDCK, 48 h): < 1000 nM; EC50 [1, 4]: < 1000 nM; EC50 [2, 5]: < 10000 nM
6 | COc1ccccc1-c1noc(C)c1C(=O)N1CCN(c2cc(NC(=O)c3ccc(N(C)C)cc3)c(Cl)cc2Cl)CC1 [Example 55] | < 100 | < 100 | < 1000 | 
7 | COc1ccccc1-c1nnn(C)c1C(=O)N1CCN(c2cc(NC(=O)c3ccc(N4CCCS4(=O)=O)cc3)c([N+](=O)[O-])cc2Cl)CC1 [Example 92] | < 100 | < 100 | < 1000 | 
8 | COc1ccccc1-c1n[nH]c(C)c1C(=O)N1CCN(c2cc(NC(=O)c3ccc(N(C)C)cc3)c([N+](=O)[O-])cc2Cl)CC1 [Example 70, N-(4-chloro-5-(4-(3-(2-methoxyphenyl)-5-methyl-1H-pyrazole-4-carbonyl)piperazin-1-yl)-2-nitrophenyl)-4-(dimethylamino)benzamide] |  |  |  | EC50 (influenza A/WSN/33; Influenza A virus, MDCK, 48 h): < 100 nM; EC50 [1, 4]: < 1000 nM; EC50 [2, 5]: < 10000 nM
9 | COc1ccccc1-c1noc(C)c1C(=O)N1CCN(c2cc(NC(=O)c3ccc(N4CCCC4=O)cc3)c([N+](=O)[O-])cc2Cl)CC1 [Example 47, N-(4-chloro-5-(4-(3-(2-methoxyphenyl)-5-methylisoxazole-4-carbonyl)piperazin-1-yl)-2-nitrophenyl)-4-(2-oxopyrrolidin-1-yl)benzamide] |  |  |  | EC50 (influenza A/WSN/33; Influenza A virus, MDCK, 48 h): < 100 nM; EC50 [1, 4]: < 100 nM; EC50 [2, 5]: < 1000 nM
10 | COc1ccccc1-c1noc(C)c1C(=O)N1CCN(c2cc(NC(=O)c3ccc(OC(F)F)cc3)c([N+](=O)[O-])cc2Cl)CC1 [Example 13] |  |  |  | EC50 (A/H5N1/Duck_MN; read-out: A/H5N1/Duck_MN): < 1000 nM; EC50 (A/H5N1/Duck_PA; read-out: A/H5N1/Duck_PA): < 1000 nM; EC50 (A/H5N1/Gull_PA; read-out: A/H5N1/Gull_PA): < 100 nM
11 | COc1ccccc1-c1noc(C)c1C(=O)N1CCN(c2cc(NC(=O)c3ccc(SC)cc3)c([N+](=O)[O-])cc2Cl)CC1 [Example 11] |  |  |  | EC50 (A/H5N1/Duck_MN; read-out: A/H5N1/Duck_MN): < 1000 nM; EC50 (A/H5N1/Duck_PA; read-out: A/H5N1/Duck_PA): < 100 nM; EC50 (A/H5N1/Gull_PA; read-out: A/H5N1/Gull_PA): < 100 nM
12 | Cc1c[nH]c(-c2ccccc2Cl)c1C(=O)N1CCN(c2cc(NC(=O)c3ccc(N(C)C)cc3)c([N+](=O)[O-])cc2Cl)CC1 [Example 72] | < 100 | < 100 | < 1000 | 
13 | COc1ccccc1-c1noc(C)c1C(=O)N1CCN(c2cc(NC(=O)c3ccc(N(C)C)cc3)c(C#N)cc2Cl)CC1 [Example 65] | < 100 | < 1000 | < 10000 | 
14 | COc1ccccc1-n1ncc(C)c1C(=O)N1CCN(c2cc(NC(=O)c3ccc(N(C)C)cc3)c([N+](=O)[O-])cc2Cl)CC1 [Example 73] | < 1000 | < 100 | < 1000 | 
15 | COc1ccccc1-c1noc(C)c1C(=O)N1CCN(c2cc(NC(=O)c3ccco3)c([N+](=O)[O-])cc2Cl)CC1 [Example 8] |  |  |  | EC50 (A/H5N1/Duck_MN; read-out: A/H5N1/Duck_MN): < 1000 nM; EC50 (A/H5N1/Duck_PA; read-out: A/H5N1/Duck_PA): < 100 nM; EC50 (A/H5N1/Gull_PA; read-out: A/H5N1/Gull_PA): < 100 nM
16 | COc1ccc(C(=O)Nc2nc(N3CCN(C(=O)c4c(-c5ccccc5OC)noc4C)CC3)c(Cl)cc2[N+](=O)[O-])cc1 [Example 43] | < 1000 | < 1000 | < 100 | 
17 | COc1ccc(C(=O)Nc2cc(N3CCN(C(=O)c4c(-c5ccccc5OC)noc4C)CC3)c(Cl)cc2[N+](=O)[O-])cc1 [Example 1, N-(4-chloro-5-(4-(3-(2-methoxyphenyl)-5-methylisoxazole-4-carbonyl)piperazin-1-yl)-2-nitrophenyl)-4-methoxybenzamide] |  |  |  | EC50 (influenza A/WSN/33; Influenza A virus, MDCK, 48 h): < 100 nM; EC50 [1, 4]: < 100 nM; EC50 [2, 5]: < 1000 nM

Row | SMILES | EC50 (influenza A/WSN/33; [3]) [nM] | EC50 [1, 3] [nM] | EC50 [2, 3] [nM] | further results
18 | Cc1onc(-c2cccc3ccccc23)c1C(=O)N1CCN(c2cc(NC(=O)c3nccs3)c([N+](=O)[O-])cc2Cl)CC1 [Example 78, N-(4-chloro-5-(4-(5-methyl-3-(naphthalen-1-yl)isoxazole-4-carbonyl)piperazin-1-yl)-2-nitrophenyl)thiazole-2-carboxamide] |  |  |  | EC50 (A/H5N1/Duck_MN; [6]): < 1000 nM; EC50 (A/H5N1/Duck_PA; [7]): < 1000 nM; EC50 (A/H5N1/Gull_PA; [8]): < 100 nM
19 | COc1ccccc1-c1ncn(C)c1C(=O)N1CCN(c2cc(NC(=O)c3ccc(N(C)C)cc3)c([N+](=O)[O-])cc2Cl)CC1 [Example 81] | < 100 | < 100 | < 10000 | 
20 | COc1ccccc1-c1noc(C)c1C(=O)N1CCN(c2nc(NC(=O)c3ccc(N(C)C)cc3)c(Cl)cc2Cl)CC1 [Example 52] | < 1000 | < 1000 | < 10000 | 
21 | C=Cc1cc(Cl)c(N2CCN(C(=O)c3c(-c4ccccc4OC)noc3C)CC2)cc1NC(=O)c1ccc(N(C)C)cc1 [Example 125, N-(4-chloro-5-(4-(3-(2-methoxyphenyl)-5-methylisoxazole-4-carbonyl)piperazin-1-yl)-2-vinylphenyl)-4-(dimethylamino)benzamide] |  |  |  | EC50 (influenza A/WSN/33; Influenza A virus, MDCK, 48 h): < 1000 nM; EC50 [1, 4]: < 1000 nM; EC50 [2, 5]: < 10000 nM
22 | COc1ccccc1-c1nnn(C)c1C(=O)N1CCN(c2cc(NC(=O)c3ccc(N4CCCC4=O)cc3)c([N+](=O)[O-])cc2Cl)CC1 [Example 84, N-(4-chloro-5-(4-(4-(2-methoxyphenyl)-1-methyl-1H-1,2,3-triazole-5-carbonyl)piperazin-1-yl)-2-nitrophenyl)-4-(2-oxopyrrolidin-1-yl)benzamide] |  |  |  | EC50 (influenza A/WSN/33; Influenza A virus, MDCK, 48 h): < 100 nM; EC50 [1, 4]: < 100 nM; EC50 [2, 5]: < 100 nM
23 | COc1ccccc1-c1nnn(C)c1C(=O)N1CCN(c2cc(NC(=O)c3ccc(N4CCCC4=O)cc3)c([N+](=O)[O-])cc2C#N)CC1 [Example 122, N-(4-cyano-5-(4-(4-(2-methoxyphenyl)-1-methyl-1H-1,2,3-triazole-5-carbonyl)piperazin-1-yl)-2-nitrophenyl)-4-(2-oxopyrrolidin-1-yl)benzamide] |  |  |  | EC50 (influenza A/WSN/33; Influenza A virus, MDCK, 48 h): < 1000 nM; EC50 [1, 4]: < 1000 nM; EC50 [2, 5]: < 1000 nM
24 | COc1ccc(C(=O)Nc2cc(N3CCN(C(=O)c4c(-c5cccc6ccccc56)noc4C)CC3)c(Cl)cc2[N+](=O)[O-])cc1 [Example 77, N-(4-chloro-5-(4-(5-methyl-3-(naphthalen-1-yl)isoxazole-4-carbonyl)piperazin-1-yl)-2-nitrophenyl)-4-methoxybenzamide] |  |  |  | EC50 (A/H5N1/Duck_MN; [6]): < 1000 nM; EC50 (A/H5N1/Duck_PA; [7]): < 1000 nM; EC50 (A/H5N1/Gull_PA; [8]): < 100 nM
25 | COc1ccc(C(=O)Nc2cc(N3CCN(C(=O)c4c(-c5ccccc5OC)noc4C)CC3)c(C#N)cc2Cl)cc1 [Example 66] | < 10000 | < 10000 | < 10000 | 
26 | COc1ccccc1-c1noc(C)c1C(=O)N1CCN(c2cc(NC(=O)c3ccc(N(C)S(C)(=O)=O)cc3)c([N+](=O)[O-])cc2Cl)CC1 [Example 35] | < 100 | < 100 | < 1000 | 
27 | COc1ccccc1-c1noc(C)c1C(=O)N1CCN(c2cc(NC(=O)c3ccc(N(C)C)cc3)c([N+](=O)[O-])cc2C#N)CC1 [Example 68] | < 1000 | < 100 | < 100 | 
28 | CCOc1ccc(C(=O)Nc2cc(N3CCN(C(=O)c4c(-c5ccccc5OC)noc4C)CC3)c(Cl)cc2[N+](=O)[O-])cc1 [Example 15] |  |  |  | EC50 (A/H5N1/Duck_MN; read-out: A/H5N1/Duck_MN): < 1000 nM; EC50 (A/H5N1/Duck_PA; read-out: A/H5N1/Duck_PA): < 1000 nM; EC50 (A/H5N1/Gull_PA; read-out: A/H5N1/Gull_PA): < 100 nM
29 | COc1ccccc1-c1noc(C)c1C(=O)N1CCN(c2cc(NC(=O)c3ccc(N(C)C)cc3)c(C)cc2Br)CC1 [Example 54] | < 1000 | < 1000 | < 10000 | 
30 | COc1ccccc1-c1ncn(C)c1C(=O)N1CCN(c2cc(NC(=O)c3ccc(N(C)C)cc3)c([N+](=O)[O-])cc2C#N)CC1 [Example 124] | < 100 | < 100 | < 100 | 
31 | COc1ccccc1-c1noc(C)c1C(=O)N1CCN(c2cc(NC(=O)c3ccc(-c4nnc(C)o4)cc3)c([N+](=O)[O-])cc2Cl)CC1 [Example 38] | < 1000 | < 1000 | < 100 | 
32 | COc1ccccc1-c1noc(C)c1C(=O)N1CCN(c2cc(NC(=O)c3nccs3)c(Cl)cc2Cl)CC1 [Example 56] | < 1000 | < 10000 | < 10000 | 
33 | COc1ccccc1-c1noc(C)c1C(=O)N1CCN(c2cc(NC(=O)C3CCC3)c([N+](=O)[O-])cc2Cl)CC1 [Example 9] | < 100 | < 1000 | < 10000 | 

— US8362004B2, “Piperazine analogs as broad-spectrum influenza antivirals” (priority 2010, dated 2013)
